Experimental data published in PubChem BioAssay AID2060895 (Molecular Pharmacology Branch, DTP, NCI, 2025).
Values belong to the molecule of their own block, whether it stands above or below them.

System: PDC 899932-113-R3-J6 complex spheroid viability
Assay: Anticancer human tumor 899932-113-R3-J6-PDC patient-derived melanoma cell line growth inhibition [RAS]
Conditions: for viability, T/C: stronger effect = lower value
Procedure, shortened: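 Tumour cells grown as complex spheroids with HUVEC endothelial cells and mesenchymal stem cells, treated with RAS pathway inhibitor combinations. Each agent spans half-log steps from near clinical Cmax, or 10 microM where Cmax is unknown.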
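Throughout, for viability, T/C: spheroids exposed to agents for seven days before readout; 100% = DMSO vehicle control wells.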

Structure (SMILES): O=C(c1ccc(F)c(F)c1Nc1ccc(I)cc1F)N1CC(O)([C@@H]2CCCCN2)C1
- viability, T/C (compound 0.00316 µM): 74% [middle of 4 runs]
- viability, T/C (compound 0.0316 µM): 6.94% [middle of 4 runs]
- viability, T/C (compound 0.1 µM): 3.21% [middle of 4 runs]
- viability, T/C (compound 0.316 µM): 1.96% [middle of 4 runs]
- viability, T/C (compound 1 µM): 1.06% [middle of 4 runs]
- IC50 (curve of compound): 7.85 nM [middle of 4 runs]

Structure (SMILES): CCn1c(-c2cccnc2C(C)OC)c2c3cc(ccc31)N1CCOC(CC(NC(=O)C(C(C)C)N(C)C(=O)C3(F)CCN(C(=O)C#CC(C)(C)N(C)C)CC3)C(=O)N3CCCC(N3)C(=O)OCC(C)(C)C2)C1 (stereo unspecified)
- viability, T/C (compound 0.000949 µM): 110% [middle of 8 runs]
- viability, T/C (compound 0.003 µM): 108% [middle of 8 runs]
- viability, T/C (compound 0.00949 µM): 105% [middle of 8 runs]
- viability, T/C (compound 0.03 µM): 106% [middle of 8 runs]
- viability, T/C (compound 0.0949 µM): 98.7% [middle of 8 runs]
- viability, T/C (compound 0.3 µM): 92.5% [middle of 8 runs]
- IC50 (compound alone, run of 08/20/2024): > 300 nM

Structure (SMILES): Cc1nc(N2CCC3(CC2)COC(C)C3N)c(CO)nc1Sc1ccnc(N)c1Cl (stereo unspecified)
- viability, T/C (compound 0.0316 µM): 104% [middle of 4 runs]
- viability, T/C (compound 0.1 µM): 103% [middle of 4 runs]
- viability, T/C (compound 0.316 µM): 111% [middle of 4 runs]
- viability, T/C (compound 1 µM): 112% [middle of 4 runs]
- viability, T/C (compound 3.16 µM): 112% [middle of 4 runs]
- viability, T/C (compound 10 µM): 108% [middle of 4 runs]
- IC50 (curve of compound): > 10000 nM

Second part, led by results:

- IC50 (curve of first compound, second compound 0.000949 µM): 2 nM
- IC50 (curve of first compound, second compound 0.003 µM): < 0.949 nM
- IC50 (curve of first compound, second compound 0.00949 µM): < 0.949 nM
- IC50 (curve of first compound, second compound 0.03 µM): < 0.949 nM
- IC50 (curve of first compound, second compound 0.0949 µM): < 0.949 nM
- IC50 (curve of first compound, second compound 0.3 µM): < 0.949 nM
Structure (SMILES): CCc1c2c(nc3ccc(O)cc13)-c1cc3c(c(=O)n1C2)COC(=O)[C@]3(O)CC + CCn1c(-c2cc(N3CCN(C)CC3)cnc2C(C)OC)c2c3cc(ccc31)-c1csc(n1)CC(NC(=O)C1CC1C)C(=O)N1CCCC(N1)C(=O)OCC(C)(C)C2
- viability, T/C (second compound 0.000949 µM, first compound 0.000949 µM): 63.8%
- viability, T/C (second compound 0.000949 µM, first compound 0.003 µM): 39.8%
- viability, T/C (second compound 0.000949 µM, first compound 0.00949 µM): 36%
- viability, T/C (second compound 0.000949 µM, first compound 0.03 µM): 26.9%
- viability, T/C (second compound 0.000949 µM, first compound 0.0949 µM): 22.6%
- viability, T/C (second compound 0.000949 µM, first compound 0.3 µM): 23%
- viability, T/C (second compound 0.003 µM, first compound 0.000949 µM): 31.1%
- viability, T/C (second compound 0.003 µM, first compound 0.003 µM): 24.2%
- viability, T/C (second compound 0.003 µM, first compound 0.00949 µM): 16.4%
- viability, T/C (second compound 0.003 µM, first compound 0.03 µM): 16.1%
- viability, T/C (second compound 0.003 µM, first compound 0.0949 µM): 13.4%
- viability, T/C (second compound 0.003 µM, first compound 0.3 µM): 14%
- viability, T/C (second compound 0.00949 µM, first compound 0.000949 µM): 3.79%
- viability, T/C (second compound 0.00949 µM, first compound 0.003 µM): 3.32%
- viability, T/C (second compound 0.00949 µM, first compound 0.00949 µM): 3.11%
- viability, T/C (second compound 0.00949 µM, first compound 0.03 µM): 3.28%
- viability, T/C (second compound 0.00949 µM, first compound 0.0949 µM): 3.1%
- viability, T/C (second compound 0.00949 µM, first compound 0.3 µM): 3.34%
- viability, T/C (second compound 0.03 µM, first compound 0.000949 µM): 2.49%
- viability, T/C (second compound 0.03 µM, first compound 0.003 µM): 2.47%
- viability, T/C (second compound 0.03 µM, first compound 0.00949 µM): 2.92%
- viability, T/C (second compound 0.03 µM, first compound 0.03 µM): 2.25%
- viability, T/C (second compound 0.03 µM, first compound 0.0949 µM): 2.41%
- viability, T/C (second compound 0.03 µM, first compound 0.3 µM): 2.31%
- viability, T/C (second compound 0.0949 µM, first compound 0.000949 µM): 2.12%
- viability, T/C (second compound 0.0949 µM, first compound 0.003 µM): 2.87%
- viability, T/C (second compound 0.0949 µM, first compound 0.00949 µM): 2.12%
- viability, T/C (second compound 0.0949 µM, first compound 0.03 µM): 2.27%
- viability, T/C (second compound 0.0949 µM, first compound 0.0949 µM): 1.31%
- viability, T/C (second compound 0.0949 µM, first compound 0.3 µM): 1.12%
- viability, T/C (second compound 0.3 µM, first compound 0.000949 µM): 1.75%
- viability, T/C (second compound 0.3 µM, first compound 0.003 µM): 2.65%
- viability, T/C (second compound 0.3 µM, first compound 0.00949 µM): 2.22%
- viability, T/C (second compound 0.3 µM, first compound 0.03 µM): 1.86%
- viability, T/C (second compound 0.3 µM, first compound 0.0949 µM): 1.47%
- viability, T/C (second compound 0.3 µM, first compound 0.3 µM): 1.58%

- IC50 (curve of first compound, second compound 0.0316 µM): 502 nM
- IC50 (curve of first compound, second compound 0.1 µM): 526 nM
- IC50 (curve of first compound, second compound 0.316 µM): 524 nM
- IC50 (curve of first compound, second compound 1 µM): 490 nM
- IC50 (curve of first compound, second compound 3.16 µM): 526 nM
- IC50 (curve of first compound, second compound 10 µM): 310 nM
Structure (SMILES): CCN1CCN(Cc2ccc(Nc3ncc(F)c(-c4cc(F)c5nc(C)n(C(C)C)c5c4)n3)nc2)CC1 + C#Cc1c(F)ccc2cc(O)cc(-c3ncc4c(N5CC6CCC(C5)N6)nc(OCC56CCCN5CC(F)C6)nc4c3F)c12
- viability, T/C (second compound 0.0316 µM, first compound 0.00316 µM): 105%
- viability, T/C (second compound 0.0316 µM, first compound 0.01 µM): 97.1%
- viability, T/C (second compound 0.0316 µM, first compound 0.0316 µM): 98.9%
- viability, T/C (second compound 0.0316 µM, first compound 0.1 µM): 83.4%
- viability, T/C (second compound 0.0316 µM, first compound 0.316 µM): 69.8%
- viability, T/C (second compound 0.0316 µM, first compound 1 µM): 23.9%
- viability, T/C (second compound 0.1 µM, first compound 0.00316 µM): 109%
- viability, T/C (second compound 0.1 µM, first compound 0.01 µM): 102%
- viability, T/C (second compound 0.1 µM, first compound 0.0316 µM): 92.9%
- viability, T/C (second compound 0.1 µM, first compound 0.1 µM): 87%
- viability, T/C (second compound 0.1 µM, first compound 0.316 µM): 68.9%
- viability, T/C (second compound 0.1 µM, first compound 1 µM): 28.3%
- viability, T/C (second compound 0.316 µM, first compound 0.00316 µM): 116%
- viability, T/C (second compound 0.316 µM, first compound 0.01 µM): 92.8%
- viability, T/C (second compound 0.316 µM, first compound 0.0316 µM): 94%
- viability, T/C (second compound 0.316 µM, first compound 0.1 µM): 92.7%
- viability, T/C (second compound 0.316 µM, first compound 0.316 µM): 69%
- viability, T/C (second compound 0.316 µM, first compound 1 µM): 26.5%
- viability, T/C (second compound 1 µM, first compound 0.00316 µM): 115%
- viability, T/C (second compound 1 µM, first compound 0.01 µM): 112%
- viability, T/C (second compound 1 µM, first compound 0.0316 µM): 98.7%
- viability, T/C (second compound 1 µM, first compound 0.1 µM): 81.6%
- viability, T/C (second compound 1 µM, first compound 0.316 µM): 67.1%
- viability, T/C (second compound 1 µM, first compound 1 µM): 27.8%
- viability, T/C (second compound 3.16 µM, first compound 0.00316 µM): 126%
- viability, T/C (second compound 3.16 µM, first compound 0.01 µM): 112%
- viability, T/C (second compound 3.16 µM, first compound 0.0316 µM): 100%
- viability, T/C (second compound 3.16 µM, first compound 0.1 µM): 86.2%
- viability, T/C (second compound 3.16 µM, first compound 0.316 µM): 71.4%
- viability, T/C (second compound 3.16 µM, first compound 1 µM): 28.5%
- viability, T/C (second compound 10 µM, first compound 0.00316 µM): 125%
- viability, T/C (second compound 10 µM, first compound 0.01 µM): 113%
- viability, T/C (second compound 10 µM, first compound 0.0316 µM): 100%
- viability, T/C (second compound 10 µM, first compound 0.1 µM): 84.4%
- viability, T/C (second compound 10 µM, first compound 0.316 µM): 48.4%
- viability, T/C (second compound 10 µM, first compound 1 µM): 3.09%

- IC50 (compound alone, run of 08/26/2024): 2.05 nM [middle of 7 runs]
Structure (SMILES): CCn1c(-c2cc(N3CCN(C)CC3)cnc2C(C)OC)c2c3cc(ccc31)-c1csc(n1)CC(NC(=O)C1CC1C)C(=O)N1CCCC(N1)C(=O)OCC(C)(C)C2 (stereo unspecified)
- viability, T/C (compound 0.000949 µM): 76% [middle of 8 runs]
- viability, T/C (compound 0.003 µM): 38.2% [middle of 8 runs]
- viability, T/C (compound 0.00949 µM): 3.79% [middle of 8 runs]
- viability, T/C (compound 0.03 µM): 3.16% [middle of 8 runs]
- viability, T/C (compound 0.0949 µM): 2.66% [middle of 8 runs]
- viability, T/C (compound 0.3 µM): 2.33% [middle of 8 runs]
